# Measurements taken from ChEMBL document CHEMBL1201862, “PubChem BioAssay data set” (2004).
#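 Five compound concentrations were applied to cells in 96-well plates for 48 hours; endpoints were derived by simple linear interpolation of the resulting dose-response curve. Here, GI50 denotes the concentration required for 50% inhibition of growth.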 The source made the active and inactive calls. Cut-off read from the data, not from the text of the source: active = GI50 up to about 1.1 µM and inactive = higher.
# Key:
# Test in all cases: NCI anticancer screen, dose series, 48 h
# SNB-75 = test system: SNB-75
# U-251 = test system: U-251
# NCI-H226 = test system: NCI-H226
# MCF7 = test system: MCF7
# CCRF-CEM = test system: CCRF-CEM
# SK-OV-3 = test system: SK-OV-3
# BT-549 = test system: BT-549
# HOP-92 = test system: HOP-92
# DU-145 = test system: DU-145
# TK-10 = test system: TK-10
# SNB-19 = test system: SNB-19
# KM12 = test system: KM12
# Malme-3M = test system: Malme-3M
# SF-268 = test system: SF-268
# OVCAR-5 = test system: OVCAR-5
# HCT-15 = test system: HCT-15
# A498 = test system: A498
# 786-0 = test system: 786-0
# HT-29 = test system: HT-29
# OVCAR-3 = test system: OVCAR-3
SMILES,GI50 (SNB-75),GI50 (U-251),GI50 (NCI-H226),GI50 (MCF7),GI50 (CCRF-CEM),GI50 (SK-OV-3),GI50 (BT-549),GI50 (HOP-92),GI50 (DU-145),GI50 (TK-10),GI50 (SNB-19),GI50 (KM12),GI50 (Malme-3M),GI50 (SF-268),GI50 (OVCAR-5),GI50 (HCT-15) [µM],GI50 (A498),GI50 (786-0),GI50 (HT-29),GI50 (OVCAR-3)
O=C(O)C1(C(=O)O)CCN(S(=O)(=O)c2ccccc2)CC1,> 100 µM (inactive),> 100 µM (inactive),> 100 µM (inactive),> 100 µM (inactive),> 100 µM (inactive),> 100 µM (inactive),> 100 µM (inactive),> 100 µM (inactive),> 100 µM (inactive),> 100 µM (inactive),> 100 µM (inactive),> 100 µM (inactive),> 100 µM (inactive),> 100 µM (inactive),> 100 µM (inactive),> 100,> 100 µM (inactive),> 100 µM (inactive),> 100 µM (inactive),> 100 µM (inactive)
Cc1nc(N(C(C)C)C(C)C)c(C(C)C)o1,> 100 µM (inactive),> 100 µM (inactive),> 100 µM (inactive),> 100 µM (inactive),> 100 µM (inactive),> 100 µM (inactive),> 100 µM (inactive),> 100 µM (inactive),> 100 µM (inactive),> 100 µM (inactive),> 100 µM (inactive),> 100 µM (inactive),> 100 µM (inactive),> 100 µM (inactive),> 100 µM (inactive),> 100,> 100 µM (inactive),> 100 µM (inactive),> 100 µM (inactive),> 100 µM (inactive)
CCOC1(OCC)C2C=CC1C(COS(=O)(=O)c1ccc(C)cc1)C2COS(=O)(=O)c1ccc(C)cc1 (stereo not given),24.8 µM (inactive),29.9 µM (inactive),24.3 µM (inactive),30.2 µM (inactive),20 µM (inactive),33.3 µM (inactive),29.3 µM (inactive),12.8 µM (inactive),39.8 µM (inactive),41.2 µM (inactive),33.8 µM (inactive),31.1 µM (inactive),24.4 µM (inactive),19.6 µM (inactive),49.4 µM (inactive),26,24 µM (inactive),33.3 µM (inactive),25.6 µM (inactive),22.5 µM (inactive)
COC(=O)C1=NN2c3ccccc3CN([C@@H](C)c3ccccc3)C(=O)[C@@H]2[C@H]1c1ccccc1,30.3 µM (inactive),> 100 µM (inactive),> 100 µM (inactive),> 100 µM (inactive),> 100 µM (inactive),> 100 µM (inactive),> 100 µM (inactive),> 100 µM (inactive),> 100 µM (inactive),> 100 µM (inactive),> 100 µM (inactive),> 100 µM (inactive),> 100 µM (inactive),> 100 µM (inactive),> 100 µM (inactive),> 100,> 100 µM (inactive),> 100 µM (inactive),> 100 µM (inactive),> 100 µM (inactive)
CC(C)NC(=O)OCc1c(COC(=O)NC(C)C)c(-c2ccc[n+](COC(=O)C(C)C)c2)n2c1CCC2,52.1 µM (inactive),> 75.5 µM (inactive),> 100 µM (inactive),55.6 µM (inactive),17.2 µM (inactive),> 100 µM (inactive),81.1 µM (inactive),44.1 µM (inactive),65.8 µM (inactive),> 91.4 µM (inactive),> 100 µM (inactive),> 100 µM (inactive),> 63.5 µM (inactive),52.4 µM (inactive),> 100 µM (inactive),> 71.9,23.1 µM (inactive),34.6 µM (inactive),73.8 µM (inactive),> 67.8 µM (inactive)
O=Cc1ccc2c(c1)CC1(C2)Cc2ccc3c(c2C1)CCC3 (stereo not given),7.24 µM (inactive),8.51 µM (inactive),16.3 µM (inactive),4.43 µM (inactive),5.14 µM (inactive),18.2 µM (inactive),5.05 µM (inactive),17 µM (inactive),22.1 µM (inactive),16.6 µM (inactive),7.08 µM (inactive),11.4 µM (inactive),6.22 µM (inactive),12.9 µM (inactive),> 44.9 µM (inactive),8.51,23.8 µM (inactive),14.4 µM (inactive),19 µM (inactive),6.68 µM (inactive)
CC(=O)C1=C(C)N(c2ccccc2)C2(O)C3=C(C(=O)c4ccccc4C3=O)C(O)=CC12Cl (stereo not given),4.28 µM (inactive),4.76 µM (inactive),21.4 µM (inactive),3.61 µM (inactive),0.65 µM (active),49.7 µM (inactive),8.11 µM (inactive),7.08 µM (inactive),11.2 µM (inactive),14.4 µM (inactive),5.36 µM (inactive),4.17 µM (inactive),1.88 µM (inactive),6.73 µM (inactive),20 µM (inactive),3.73,13 µM (inactive),4.63 µM (inactive),3.1 µM (inactive),4.2 µM (inactive)
